Measurements published in US7935722B2 (Eli Lilly and Company, priority 2005, dated 2011).
Read-outs that look alike come from different tables or passages of the source.

Assays:
[1] = biological target: T1, human AR (androgen receptor) (Homo sapiens, UniProt P10275); experiment: Steroid hormone nuclear receptor binding assay, AR binding
T1 construct: expressed in transfected cells; host or cells: 293 cells (293-AR lysate)
T1 sequence (P10275 1-920): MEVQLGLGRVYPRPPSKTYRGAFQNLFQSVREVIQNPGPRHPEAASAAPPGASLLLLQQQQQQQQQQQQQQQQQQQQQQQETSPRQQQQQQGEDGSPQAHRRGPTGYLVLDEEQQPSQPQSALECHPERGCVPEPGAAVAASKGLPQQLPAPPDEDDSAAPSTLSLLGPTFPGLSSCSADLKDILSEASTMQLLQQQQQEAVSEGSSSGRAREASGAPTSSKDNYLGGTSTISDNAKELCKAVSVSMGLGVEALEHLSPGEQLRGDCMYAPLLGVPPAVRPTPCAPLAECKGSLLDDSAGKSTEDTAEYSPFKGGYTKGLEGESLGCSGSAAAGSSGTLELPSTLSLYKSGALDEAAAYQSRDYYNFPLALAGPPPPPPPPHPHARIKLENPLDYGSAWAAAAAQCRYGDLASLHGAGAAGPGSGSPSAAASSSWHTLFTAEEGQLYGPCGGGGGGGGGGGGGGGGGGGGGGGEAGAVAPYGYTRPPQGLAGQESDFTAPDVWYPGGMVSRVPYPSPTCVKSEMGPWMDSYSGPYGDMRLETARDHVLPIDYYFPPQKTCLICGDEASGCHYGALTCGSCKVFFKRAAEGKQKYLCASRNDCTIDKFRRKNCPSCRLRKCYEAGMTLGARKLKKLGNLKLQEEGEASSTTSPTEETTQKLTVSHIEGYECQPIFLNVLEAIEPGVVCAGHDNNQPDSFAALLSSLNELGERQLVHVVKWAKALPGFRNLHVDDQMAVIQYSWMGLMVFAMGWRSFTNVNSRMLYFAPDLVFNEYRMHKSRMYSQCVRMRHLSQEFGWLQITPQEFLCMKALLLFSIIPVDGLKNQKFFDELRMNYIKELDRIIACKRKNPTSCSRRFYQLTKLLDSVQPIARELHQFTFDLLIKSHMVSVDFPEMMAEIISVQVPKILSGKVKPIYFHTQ
Experimental: Cell lysates from 293 cells overexpressing human GR (glucocorticoid receptor), AR (androgen receptor), MR (mineralocorticoid receptor) or PR (progesterone receptor) are used for competition binding assays to determine Ki values for test compounds. […] Competing compounds are added at various concentrations ranging from about 0.01 nM to 10 μM. Non-specific binding is determined in the presence of 500 nM dexamethasone for GR binding, 500 nM aldosterone for MR binding, or 500 nM methyltrienolone for AR and PR binding. The binding reaction (140 μl) is incubated for overnight at 4° C., then 70 μl of cold charcoal-dextran buffer (containing per 50 ml of assay buffer, 0.75 g of charcoal and 0.25 g of dextran) is added to each reaction. Plates are mixed 8 minutes on an orbital shaker at 4° C. Plates are then centrifuged at 3,000 rpm at 4° C. for 10 minutes. An aliquot of 120 μl of the mix is transferred to another 96-well plate and 175 μl of Wallac Optiphase “Hisafe 3” scintillation fluid is added to each well. Plates are sealed and shaken vigorously on an orbital shaker. After an incubation of 2 hrs, plates are read in a Wallac Microbeta counter. […] The Kd for ^3H-dexamethasone for GR binding, ^3H-methyltrienolone for AR binding, ^3H-aldosterone for MR binding, or ^3H-methyltrienolone for PR binding, is determined by saturation binding. The IC50 values for test compounds are converted to Ki using Cheng-Prusoff equation and the Kd determined by saturation binding assay. […]

[2] = biological target: T2, human androgen receptor (AR) (Homo sapiens, UniProt P10275); experiment: C2C12 AR/ARE reporter assay; format: cell-based
T2 construct: expressed in transfected cells; host or cells: mouse myoblast C2C12 cells, transiently co-transfected
T2 sequence (P10275 1-920): T1 sequence (P10275 1-920)
Experimental: As an indicator of agonist activity in muscle tissue, the C2C12 AR/ARE reporter assay is performed. Briefly, mouse myoblast C2C12 cells are co-transfected using FuGENE™. […] Cells are transfected in T150 cm^2 flasks in DMEM media with 4% or 10% Fetal Bovine Serum […]. After a 5 hour incubation, transfected cells are trypsinized, plated in 96 well dishes in DMEM media containing 10% charcoal-stripped FBS, incubated for 2 h and then exposed to various concentrations of test compounds ranging from about 0.01 nM to 10 μM. After 48 h of incubations with compounds, cells are lysed and luciferase activity is determined using standard techniques. Data is fit to a 4 parameter-fit logistics to determine EC50 values. The % efficacy is determined versus maximum stimulation obtained with 10 nM methyltrienolone. […]

[3] = average of n trials, read-out: AR binding Ki
[4] = C2C12 AR/ARE reporter assay, average of n trials, read-out: C2C12 % Efficacy
[5] = C2C12 AR/ARE reporter assay, average of n trials, read-out: C2C12 EC50
[6] = C2C12, read-out: C2C12 % Efficacy

| SMILES | Ki [1, 3] [nM] | Emax [2, 4] [%] | EC50 [2, 5] [nM] | Ki [1] [nM] | EC50 [2] [nM] | Emax [2, 6] [%] |
| --- | --- | --- | --- | --- | --- | --- |
| COC(=O)NC1CCc2c(c3cc(OC(F)(F)F)ccc3n2Cc2cccc(F)n2)C1 (stereo not drawn) [Example 164] | 42.3 | 41.8 | 1230 |  |  |  |
| COC(=O)NC1CCc2c(c3cc(C#N)ccc3n2Cc2cccc(F)c2)C1 (stereo not drawn) [Example 184, [6-Cyano-9-(3-fluoro-benzyl)-2,3,4,9-tetrahydro-1H-carbazol-3-yl]-carbamic acid methyl ester] |  |  |  | 2.8 | 27.3 | 78.9 |
| CC[C@@H](C)C(=O)NC1CCc2c(c3cc(Br)ccc3n2Cc2cccc(F)c2)C1 (stereo partly drawn) [Example 171] | 8.2 | 63.5 | 411 |  |  |  |
| CC(C)C(=O)NC1CCc2c(c3cc(Cl)ccc3n2Cc2cccc(C(F)(F)F)c2)C1 (stereo not drawn) [Example 83] |  |  |  | 29.5 | 85.1 | 93.1 |
| COc1cccc2c3c(n(Cc4ccccc4)c12)CCC(NC(=O)C(C)C)C3 (stereo not drawn) [Example 76] |  |  |  | 478 | 1710 | 58.1 |
| CON(C)C(=O)NC1CCc2c(c3cc(C#N)ccc3n2Cc2cccc(F)c2)C1 (stereo not drawn) [Example 180, 3-[6-Cyano-9-(3-fluorobenzyl)-2,3,4,9-tetrahydro-1H-carbazol-3-yl]-1-methoxy-1-methyl-urea] |  |  |  | 4.6 | 2.2 | 97 |
| CC(C)C(=O)N[C@@H]1CCc2c(c3cc(C=O)ccc3n2Cc2cccc(F)c2)C1 [Example 200, (R)-N-[9-(3-Fluorobenzyl)-6-formyl-2,3,4,9-tetrahydro-1H-carbazol-3-yl]-isobutyramide] |  |  |  | 2.8 | 8.1 | 112 |
| CC(C)C(=O)NC1CCc2c(c3cc(-c4ccc(F)nc4)ccc3n2Cc2cccc(F)c2)C1 (stereo not drawn) [Example 135] | 20.4 | 66 | 62.3 |  |  |  |
| N#Cc1ccc2c(c1)c1c(n2Cc2cccc(F)c2)CC[C@@H](NC(=O)C2CC2)C1 [Example 194, (R)-Cyclopropanecarboxylic acid[6-cyano-9-(3-fluorobenzyl)-2,3,4,9-tetrahydro-1H-carbazol-3-yl]amide] |  |  |  | 1.3 | 2 | 95.5 |
| CC(C)C(=O)NC1CCc2c(c3cc(-c4cncnc4)ccc3n2Cc2cccc(F)c2)C1 (stereo not drawn) [Example 137] |  |  |  | 16.2 | 17.5 | 79.4 |
| CN(C)C(=O)NC1CCc2c(c3cc(C#N)ccc3n2Cc2cccc(F)c2)C1 (stereo not drawn) [Example 178, 3-[6-Cyano-9-(3-fluorobenzyl)-2,3,4,9-tetrahydro-1H-carbazol-3-yl]-1,1-dimethylurea] | 5.9 | 81.8 | 11.5 |  |  |  |
| CC(C)C(=O)N[C@@H]1CCc2c(c3cc(C#N)ccc3n2Cc2cccc(F)n2)C1 [Example 183, (R)-N-[6-Cyano-9-(6-fluoro-pyridin-2-ylmethyl)-2,3,4,9-tetrahydro-1H-carbazol-3-yl]-isobutyramide] | 4.3 | 95.3 | 0.7 |  |  |  |
| COC(=O)NC1CCc2c(c3cc(OC(F)(F)F)ccc3n2Cc2cccc(F)c2)C1 (stereo not drawn) [Example 168] | 37 | 56.7 | 280 |  |  |  |
| CC(C)C(=O)NC1CCc2c(c3cc(C#N)ccc3n2Cc2ccccc2N)C1 (stereo not drawn) [Example 109, N-[9-(2-Amino-benzyl)-6-cyano-2,3,4,9-tetrahydro-1H-carbazol-3-yl]-isobutyramide] |  |  |  | 15.9 | 2.3 | 76.9 |
| CC(C)C(=O)NC1CCc2c(c3cc(Cl)ccc3n2Cc2cccc(Br)c2)C1 (stereo not drawn) [Example 81] |  |  |  | 11.3 | 94 | 81.9 |
| CC(C)C(=O)N[C@@H]1CCc2c(c3cc(-c4cnc(N)s4)ccc3n2Cc2cccc(F)c2)C1 [Example 141] |  |  |  | 10 | 41 | 102 |
| O=C(NC1CCc2c(c3cc(OC(F)(F)F)ccc3n2Cc2cccc(F)c2)C1)C1CC1 (stereo not drawn) [Example 167] |  |  |  | 7.8 | 13.7 | 82.4 |
| COC(=O)c1ccc2c(c1)c1c(n2Cc2cccc(F)c2)CC[C@@H](NC(=O)C(C)C)C1 [Example 187, (R)-9-(3-fluorobenzyl)-6-isobutyrylamino-6,7,8,9-tetrahydro-5H-carbazole-3-carboxylic acid methyl ester] |  |  |  | 2.3 | 2.4 | 77.8 |
| CC(C)C(=O)NC1CCc2c(c3cc(OCC4CC4)ccc3n2Cc2cccc(F)c2)C1 (stereo not drawn) [Example 92, N-[6-Cyclopropylmetboxy-9-(3-fluoro-benzyl)-2,3,4,9-tetrahydro-1H-carbazol-3-yl]-isobutyramide] |  |  |  | 4.1 | 3 | 73.4 |
| CC(C)C(=O)NC1CCc2c(c3cc(C#N)ccc3n2Cc2csc(Cl)n2)C1 (stereo not drawn) [Example 153, N-[9-(2-Chloro-thiazol-4-ylmethyl)-6-cyano-2,3,4,9-tetrahydro-1H-carbazol-3-yl]-isobutyramide] |  |  |  | 7.8 | 19.3 | 93.3 |
| CC(C)C(=O)NC1CCc2c(c3cc(Cl)ccc3n2Cc2cccc(O)c2)C1 (stereo not drawn) [Example 102, N-[^6-Chloro-9-(3-hydroxy-benzyl)-2,3,4,9-tetrahydro-1H-carbazol-3-yl]-isobutyramide] |  |  |  | 16.8 | 300 | 39.6 |
| Cc1ncc(-c2ccc3c(c2)c2c(n3Cc3cccc(F)c3)CCC(NC(=O)C(C)C)C2)cn1 (stereo not drawn) [Example 136] |  |  |  | 13.8 | 0.7 | 90.4 |
| CC(C)Oc1ccc2c(c1)c1c(n2Cc2cccc(F)c2)CCC(NC(=O)C(C)C)C1 (stereo not drawn) [Example 94, N-[9-(3-Fluoro-benzyl)-6-isopropoxy-2,3,4,9-tetrahydro-1H-carbazol-3-yl]-isobutyramide] |  |  |  | 38.3 | 41 | 101 |
| CC(C)C(=O)N[C@@H]1CCc2c(c3cc(C#N)ccc3n2Cc2ccccn2)C1 [Example 161, (R)-N-(6-cyano-9-pyridin-2-ylmethyl-2,3,4,9-tetrahydro-1H-carbazol-3-yl)-isobutyramide] |  |  |  | 6.8 | 3.1 | 95.7 |
| COc1ccc2c(c1)c1c(n2Cc2ccccn2)CCC(NC(=O)C(C)C)C1 (stereo not drawn) [Example 143, N-(6-methoxy-9-pyridin-2-ylmethyl-2,3,4,9-tetrahydro-1H-carbazol-3-yl)-isobutyramide] |  |  |  | 362 | 351 | 80.3 |
| CC(C)C(=O)NC1CCc2c(c3cc(C#N)ccc3n2Cc2ccccc2N(C)C)C1 (stereo not drawn) [Example 114, N-[6-Cyano-9-furan-(2-dimethylamino-benzyl)-2,3,4,9-tetrahydro-1H-carbazol-3-yl]-isobutyramide] |  |  |  | 20.8 | 98.7 | 118 |
| COc1ccc2c(c1)c1c(n2Cc2ccccc2Cl)CCC(NC(=O)C(C)C)C1 (stereo not drawn) [Example 69, N-[9-(2-Chloro-benzyl)-6-methoxy-2,3,4,9-tetrahydro-1H-carbazol-3-yl]-isobutyramide] |  |  |  | 34.1 | 213 | 63.3 |
